What was measured:
[1] = biological target: Tyrosine-protein kinase BTK (Homo sapiens, UniProt Q06187); test: Inhibition of recombinant full-length His6-tagged BTK (unknown origin) expressed in baculovirus infected Sf9 cells using biotinylated A5 peptide as substrate preincubated for 60 mins followed by substrate addition measured after 120 mins by LANCE TR-FRET assay
[2] = biological target: Voltage-gated inwardly rectifying potassium channel KCNH2 (Homo sapiens, UniProt Q12809); test: Inhibition of human ERG by [35S]-MK499 displacement or iKr channel assay
[3] = biological target: Tyrosine-protein kinase Blk (Homo sapiens, UniProt P51451); test: Inhibition of BLK (unknown origin)
[4] = species: Homo sapiens; test: Selectivity ratio of IC50 for CSK (unknown origin) to IC50 for BTK (unknown origin)
[5] = species: Homo sapiens; test: Selectivity ratio of IC50 for FGR (unknown origin) to IC50 for BTK (unknown origin)
[6] = species: Homo sapiens; test: Selectivity ratio of IC50 for PTK6 (unknown origin) to IC50 for BTK (unknown origin)
[7] = species: Homo sapiens; test: Selectivity ratio of IC50 for SRC (unknown origin) to IC50 for BTK (unknown origin)
[8] = species: Homo sapiens; test: Selectivity ratio of IC50 for TEC (unknown origin) to IC50 for BTK (unknown origin)
[9] = biological target: Tyrosine-protein kinase Yes (Homo sapiens, UniProt P07947); test: Inhibition of YES1 (unknown origin)
[10] = species: Homo sapiens; test: Selectivity ratio of IC50 for YES1 (unknown origin) to IC50 for BTK (unknown origin)
[11] = Total clearance in rat plasma at 10 mg/kg; type: ADME, organism-based
[12] = Half life in rat at 10 mg/kg; type: ADME, organism-based; conditions: in vivo
[13] = Oral bioavailability in rat at 10 mg/kg; type: ADME, organism-based; conditions: in vivo
[14] = Oral bioavailability in dog at 2 mg/kg; type: ADME, organism-based, Canis lupus familiaris; conditions: in vivo

Sequence of Tyrosine-protein kinase Blk (P51451 whole entry): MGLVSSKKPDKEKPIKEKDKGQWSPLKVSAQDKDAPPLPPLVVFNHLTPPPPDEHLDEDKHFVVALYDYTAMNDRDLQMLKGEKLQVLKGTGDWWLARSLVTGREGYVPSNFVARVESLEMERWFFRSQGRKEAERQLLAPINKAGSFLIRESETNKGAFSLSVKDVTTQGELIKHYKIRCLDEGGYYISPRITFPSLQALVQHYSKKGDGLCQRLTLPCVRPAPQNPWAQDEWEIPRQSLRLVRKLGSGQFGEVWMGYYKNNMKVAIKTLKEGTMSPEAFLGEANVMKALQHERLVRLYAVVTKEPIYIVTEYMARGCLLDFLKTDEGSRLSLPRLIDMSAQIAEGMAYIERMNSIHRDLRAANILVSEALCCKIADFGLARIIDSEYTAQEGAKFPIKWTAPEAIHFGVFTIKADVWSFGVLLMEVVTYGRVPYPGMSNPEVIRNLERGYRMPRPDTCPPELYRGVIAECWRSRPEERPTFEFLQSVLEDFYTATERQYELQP
Sequence of Voltage-gated inwardly rectifying potassium channel KCNH2 (Q12809 whole entry): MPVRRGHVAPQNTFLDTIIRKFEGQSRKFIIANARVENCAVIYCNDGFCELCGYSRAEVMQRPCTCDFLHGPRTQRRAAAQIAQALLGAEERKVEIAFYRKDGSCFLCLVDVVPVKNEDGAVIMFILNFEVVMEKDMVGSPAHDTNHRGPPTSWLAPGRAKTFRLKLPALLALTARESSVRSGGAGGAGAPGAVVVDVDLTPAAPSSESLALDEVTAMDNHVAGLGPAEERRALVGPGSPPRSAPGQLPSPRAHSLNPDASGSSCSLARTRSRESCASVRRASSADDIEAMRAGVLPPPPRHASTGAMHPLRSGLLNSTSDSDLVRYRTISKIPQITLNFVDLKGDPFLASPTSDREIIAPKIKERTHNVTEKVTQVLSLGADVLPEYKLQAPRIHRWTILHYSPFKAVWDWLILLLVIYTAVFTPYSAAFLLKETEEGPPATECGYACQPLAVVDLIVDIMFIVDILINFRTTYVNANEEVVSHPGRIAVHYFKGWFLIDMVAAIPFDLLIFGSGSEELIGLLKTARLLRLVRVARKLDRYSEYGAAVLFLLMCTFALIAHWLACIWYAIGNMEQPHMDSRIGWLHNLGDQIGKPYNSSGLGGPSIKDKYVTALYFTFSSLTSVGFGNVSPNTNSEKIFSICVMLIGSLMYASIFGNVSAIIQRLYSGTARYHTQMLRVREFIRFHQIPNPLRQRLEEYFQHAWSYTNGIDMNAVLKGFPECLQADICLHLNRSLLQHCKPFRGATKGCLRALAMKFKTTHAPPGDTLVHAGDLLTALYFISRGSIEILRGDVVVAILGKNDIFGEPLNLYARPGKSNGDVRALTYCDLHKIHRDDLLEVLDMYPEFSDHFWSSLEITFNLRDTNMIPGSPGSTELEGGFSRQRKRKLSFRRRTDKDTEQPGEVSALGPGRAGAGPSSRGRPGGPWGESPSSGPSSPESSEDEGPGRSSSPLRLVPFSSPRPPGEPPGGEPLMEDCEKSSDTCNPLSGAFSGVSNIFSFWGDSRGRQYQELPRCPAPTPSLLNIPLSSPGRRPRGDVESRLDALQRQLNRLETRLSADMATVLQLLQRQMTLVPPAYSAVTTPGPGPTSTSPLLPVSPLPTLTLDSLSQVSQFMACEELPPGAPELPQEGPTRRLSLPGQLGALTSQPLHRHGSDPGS
Sequence of Tyrosine-protein kinase Yes (P07947 whole entry): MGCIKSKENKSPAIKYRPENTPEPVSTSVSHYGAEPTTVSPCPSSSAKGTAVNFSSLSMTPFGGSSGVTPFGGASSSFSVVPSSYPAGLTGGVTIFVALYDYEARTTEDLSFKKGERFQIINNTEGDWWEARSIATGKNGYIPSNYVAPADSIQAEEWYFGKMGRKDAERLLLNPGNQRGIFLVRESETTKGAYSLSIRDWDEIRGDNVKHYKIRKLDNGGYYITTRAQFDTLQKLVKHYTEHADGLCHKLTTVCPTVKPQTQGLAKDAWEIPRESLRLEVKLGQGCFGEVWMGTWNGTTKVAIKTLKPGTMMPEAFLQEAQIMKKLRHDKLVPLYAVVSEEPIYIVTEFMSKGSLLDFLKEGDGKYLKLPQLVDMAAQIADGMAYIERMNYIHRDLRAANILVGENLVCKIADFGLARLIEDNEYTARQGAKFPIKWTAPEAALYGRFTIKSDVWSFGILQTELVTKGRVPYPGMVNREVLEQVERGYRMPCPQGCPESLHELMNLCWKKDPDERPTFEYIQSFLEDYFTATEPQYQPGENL
Sequence of Tyrosine-protein kinase BTK (Q06187 whole entry): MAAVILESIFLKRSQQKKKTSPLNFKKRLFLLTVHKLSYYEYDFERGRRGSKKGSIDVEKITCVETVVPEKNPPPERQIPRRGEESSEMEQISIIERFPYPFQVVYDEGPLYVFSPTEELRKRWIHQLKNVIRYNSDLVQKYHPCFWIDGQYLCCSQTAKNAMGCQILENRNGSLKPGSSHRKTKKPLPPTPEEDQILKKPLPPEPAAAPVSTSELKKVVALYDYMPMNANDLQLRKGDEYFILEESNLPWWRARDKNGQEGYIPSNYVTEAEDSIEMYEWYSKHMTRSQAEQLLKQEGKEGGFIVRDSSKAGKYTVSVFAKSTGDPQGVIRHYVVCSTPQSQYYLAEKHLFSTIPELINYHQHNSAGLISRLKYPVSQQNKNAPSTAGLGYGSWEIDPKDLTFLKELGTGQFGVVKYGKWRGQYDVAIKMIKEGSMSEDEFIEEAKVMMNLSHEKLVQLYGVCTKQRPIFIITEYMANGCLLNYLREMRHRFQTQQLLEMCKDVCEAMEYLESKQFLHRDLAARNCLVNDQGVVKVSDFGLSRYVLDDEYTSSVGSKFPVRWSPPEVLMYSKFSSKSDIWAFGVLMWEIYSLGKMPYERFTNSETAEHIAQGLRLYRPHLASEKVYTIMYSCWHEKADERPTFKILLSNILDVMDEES

- IC50 [1]: 0.4 to 0.44 nM
- IC50 [3]: 280 nM
- Ratio IC50 [4]: 4880
- Ratio IC50 [5]: 610
- Ratio IC50 [6]: 393
- Ratio IC50 [7]: 1160
- Ratio IC50 [8]: 973
- IC50 [9]: 266 nM
- Ratio IC50 [10]: 605
- clearance [11]: 1.4 mL/min/kg
- half-life [12]: 2.3 h
- bioavailability [13]: 87%
- bioavailability [14]: 89%
Compound: CC(C)C(=O)N1CCO[C@@H](c2nc(-c3ccc(C(=O)Nc4cc(C(F)(F)F)ccn4)cc3F)c3c(N)nccn23)C1
- IC50 [2]: 15000 nM

Reference: ChEMBL document CHEMBL4052776, “Discovery of 3-morpholino-imidazole[1,5-a]pyrazine BTK inhibitors for rheumatoid arthritis” (Bioorg Med Chem Lett, 2017)
